The target of assay [1] is T1, various enzymes (Homo sapiens, UniProt O43283).
T1 sequence (O43283 1-966): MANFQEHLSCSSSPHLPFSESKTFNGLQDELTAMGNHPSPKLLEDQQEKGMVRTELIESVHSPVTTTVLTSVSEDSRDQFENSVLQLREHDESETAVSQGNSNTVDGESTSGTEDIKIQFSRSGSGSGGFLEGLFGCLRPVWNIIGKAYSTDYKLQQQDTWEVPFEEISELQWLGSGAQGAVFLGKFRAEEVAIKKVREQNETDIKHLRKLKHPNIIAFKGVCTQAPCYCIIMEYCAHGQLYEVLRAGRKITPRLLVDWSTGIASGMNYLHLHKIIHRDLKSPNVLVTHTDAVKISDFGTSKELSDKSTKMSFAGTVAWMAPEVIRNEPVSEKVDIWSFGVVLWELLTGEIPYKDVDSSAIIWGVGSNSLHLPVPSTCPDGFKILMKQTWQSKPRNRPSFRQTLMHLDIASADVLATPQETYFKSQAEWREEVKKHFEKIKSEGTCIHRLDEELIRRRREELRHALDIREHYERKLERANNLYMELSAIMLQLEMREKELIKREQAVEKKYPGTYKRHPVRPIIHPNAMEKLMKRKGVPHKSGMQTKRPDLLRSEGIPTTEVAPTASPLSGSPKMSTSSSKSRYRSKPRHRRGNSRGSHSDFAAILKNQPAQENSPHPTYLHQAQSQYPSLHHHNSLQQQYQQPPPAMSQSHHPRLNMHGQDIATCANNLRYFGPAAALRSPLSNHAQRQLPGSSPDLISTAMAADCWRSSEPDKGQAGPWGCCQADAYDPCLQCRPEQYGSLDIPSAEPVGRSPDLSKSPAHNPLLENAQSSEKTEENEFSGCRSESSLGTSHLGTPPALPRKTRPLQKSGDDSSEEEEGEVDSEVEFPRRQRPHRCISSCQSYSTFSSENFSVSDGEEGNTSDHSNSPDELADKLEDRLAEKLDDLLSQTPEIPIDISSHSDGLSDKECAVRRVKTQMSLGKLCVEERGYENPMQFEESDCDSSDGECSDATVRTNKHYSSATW
To be noted: LZK; 1 uM.
Method: (§1) Ambit profiling from Eurofins (formerly Discoverx) was conducted in accordance with the manufacturer's instructions.

Assay [2] concerns the target various enzymes (Homo sapiens, UniProt O94921). The settings on record: PFTK1; 1 uM.
Method: as §1
Assay [3] addresses various enzymes (Homo sapiens, UniProt P49336). To be noted: CDK8; 1 uM.
Method: as §1
Assay [4] addresses T2, various enzymes (Homo sapiens, UniProt Q08881).
T2 sequence (Q08881 1-620): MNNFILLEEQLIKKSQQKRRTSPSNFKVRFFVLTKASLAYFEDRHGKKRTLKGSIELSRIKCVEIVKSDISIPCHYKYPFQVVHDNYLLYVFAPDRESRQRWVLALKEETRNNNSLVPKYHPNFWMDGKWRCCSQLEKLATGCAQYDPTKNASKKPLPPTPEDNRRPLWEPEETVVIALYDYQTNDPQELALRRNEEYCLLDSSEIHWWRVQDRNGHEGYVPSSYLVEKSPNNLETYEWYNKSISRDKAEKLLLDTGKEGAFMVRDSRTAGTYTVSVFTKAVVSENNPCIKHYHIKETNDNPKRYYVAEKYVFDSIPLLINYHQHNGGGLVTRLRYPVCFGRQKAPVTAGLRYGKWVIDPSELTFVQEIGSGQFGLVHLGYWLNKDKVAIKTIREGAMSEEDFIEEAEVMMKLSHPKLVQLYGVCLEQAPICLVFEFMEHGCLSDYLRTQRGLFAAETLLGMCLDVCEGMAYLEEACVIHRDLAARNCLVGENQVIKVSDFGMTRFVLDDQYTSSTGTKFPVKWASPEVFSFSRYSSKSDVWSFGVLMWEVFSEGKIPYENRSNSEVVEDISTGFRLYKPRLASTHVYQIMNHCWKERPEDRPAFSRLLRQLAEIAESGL
The settings on record: ITK; 1 uM.
Method: as §1

For assay [5], the target named is T3, various enzymes (Homo sapiens, UniProt Q13043).
T3 sequence (Q13043 1-487): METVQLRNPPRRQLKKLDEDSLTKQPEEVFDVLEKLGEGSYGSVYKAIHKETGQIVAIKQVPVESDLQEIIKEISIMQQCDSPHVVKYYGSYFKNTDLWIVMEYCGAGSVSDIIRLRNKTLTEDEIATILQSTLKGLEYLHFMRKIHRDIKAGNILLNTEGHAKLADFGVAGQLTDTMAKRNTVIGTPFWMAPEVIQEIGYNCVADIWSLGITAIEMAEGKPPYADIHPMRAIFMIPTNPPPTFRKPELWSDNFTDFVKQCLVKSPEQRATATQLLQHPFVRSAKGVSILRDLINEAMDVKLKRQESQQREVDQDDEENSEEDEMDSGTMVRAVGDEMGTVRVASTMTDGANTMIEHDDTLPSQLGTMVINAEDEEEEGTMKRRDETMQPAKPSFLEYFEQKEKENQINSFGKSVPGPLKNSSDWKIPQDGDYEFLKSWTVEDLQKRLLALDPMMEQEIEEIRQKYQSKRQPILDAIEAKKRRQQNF
To be noted: MST1; 1 uM.
Method: as §1

Assay [6] concerns the target various enzymes (Homo sapiens, UniProt Q9H4A3). The settings on record: WNK1; 1 uM.
Method: as §1
The target of assay [7] is various enzymes (Homo sapiens, UniProt Q9NYY3). To be noted: PLK2; 1 uM.
Sequence of various enzymes (Homo sapiens, UniProt Q9NYY3) (Q9NYY3 whole entry): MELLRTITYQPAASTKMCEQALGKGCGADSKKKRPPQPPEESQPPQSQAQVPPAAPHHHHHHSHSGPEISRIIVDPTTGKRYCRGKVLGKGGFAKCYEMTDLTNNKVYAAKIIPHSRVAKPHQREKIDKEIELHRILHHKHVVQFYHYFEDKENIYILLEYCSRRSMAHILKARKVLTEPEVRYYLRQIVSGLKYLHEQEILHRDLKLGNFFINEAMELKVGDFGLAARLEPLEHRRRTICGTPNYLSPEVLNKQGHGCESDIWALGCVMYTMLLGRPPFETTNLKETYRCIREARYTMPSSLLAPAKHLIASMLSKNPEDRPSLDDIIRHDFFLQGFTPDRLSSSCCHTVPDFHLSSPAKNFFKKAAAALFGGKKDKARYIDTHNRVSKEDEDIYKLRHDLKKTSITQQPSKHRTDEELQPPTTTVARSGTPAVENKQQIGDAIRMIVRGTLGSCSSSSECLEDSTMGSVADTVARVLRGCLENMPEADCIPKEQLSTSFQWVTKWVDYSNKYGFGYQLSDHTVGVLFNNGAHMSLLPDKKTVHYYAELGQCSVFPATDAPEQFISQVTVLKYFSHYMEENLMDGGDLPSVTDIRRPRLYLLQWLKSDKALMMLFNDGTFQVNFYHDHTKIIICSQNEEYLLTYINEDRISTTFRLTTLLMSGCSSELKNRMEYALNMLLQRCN
Method: as §1
Assay [8] deals with various enzymes (Homo sapiens, UniProt Q9UK32). To be noted: 1 uM.
Sequence of various enzymes (Homo sapiens, UniProt Q9UK32) (Q9UK32 whole entry): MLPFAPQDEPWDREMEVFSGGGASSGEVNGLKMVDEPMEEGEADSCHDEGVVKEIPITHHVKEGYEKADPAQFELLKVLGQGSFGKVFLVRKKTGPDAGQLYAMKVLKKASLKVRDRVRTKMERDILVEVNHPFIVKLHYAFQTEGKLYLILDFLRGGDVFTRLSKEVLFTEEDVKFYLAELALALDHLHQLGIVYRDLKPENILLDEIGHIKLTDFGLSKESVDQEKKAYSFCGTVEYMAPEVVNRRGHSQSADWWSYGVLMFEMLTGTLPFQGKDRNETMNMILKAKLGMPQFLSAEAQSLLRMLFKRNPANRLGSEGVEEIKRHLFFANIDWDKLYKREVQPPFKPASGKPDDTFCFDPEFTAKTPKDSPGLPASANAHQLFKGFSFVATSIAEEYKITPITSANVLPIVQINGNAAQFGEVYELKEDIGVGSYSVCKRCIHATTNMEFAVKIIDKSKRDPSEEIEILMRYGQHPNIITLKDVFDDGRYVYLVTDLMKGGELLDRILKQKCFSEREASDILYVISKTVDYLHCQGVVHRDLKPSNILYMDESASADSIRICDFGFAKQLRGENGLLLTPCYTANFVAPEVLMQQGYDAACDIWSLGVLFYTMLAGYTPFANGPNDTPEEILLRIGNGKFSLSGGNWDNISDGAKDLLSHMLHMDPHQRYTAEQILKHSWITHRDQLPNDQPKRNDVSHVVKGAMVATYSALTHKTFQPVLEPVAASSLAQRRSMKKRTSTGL
Method: as §1

Read-outs that look alike come from different tables or passages of the source.

Sequence of various enzymes (Homo sapiens, UniProt Q9H4A3) (Q9H4A3 whole entry): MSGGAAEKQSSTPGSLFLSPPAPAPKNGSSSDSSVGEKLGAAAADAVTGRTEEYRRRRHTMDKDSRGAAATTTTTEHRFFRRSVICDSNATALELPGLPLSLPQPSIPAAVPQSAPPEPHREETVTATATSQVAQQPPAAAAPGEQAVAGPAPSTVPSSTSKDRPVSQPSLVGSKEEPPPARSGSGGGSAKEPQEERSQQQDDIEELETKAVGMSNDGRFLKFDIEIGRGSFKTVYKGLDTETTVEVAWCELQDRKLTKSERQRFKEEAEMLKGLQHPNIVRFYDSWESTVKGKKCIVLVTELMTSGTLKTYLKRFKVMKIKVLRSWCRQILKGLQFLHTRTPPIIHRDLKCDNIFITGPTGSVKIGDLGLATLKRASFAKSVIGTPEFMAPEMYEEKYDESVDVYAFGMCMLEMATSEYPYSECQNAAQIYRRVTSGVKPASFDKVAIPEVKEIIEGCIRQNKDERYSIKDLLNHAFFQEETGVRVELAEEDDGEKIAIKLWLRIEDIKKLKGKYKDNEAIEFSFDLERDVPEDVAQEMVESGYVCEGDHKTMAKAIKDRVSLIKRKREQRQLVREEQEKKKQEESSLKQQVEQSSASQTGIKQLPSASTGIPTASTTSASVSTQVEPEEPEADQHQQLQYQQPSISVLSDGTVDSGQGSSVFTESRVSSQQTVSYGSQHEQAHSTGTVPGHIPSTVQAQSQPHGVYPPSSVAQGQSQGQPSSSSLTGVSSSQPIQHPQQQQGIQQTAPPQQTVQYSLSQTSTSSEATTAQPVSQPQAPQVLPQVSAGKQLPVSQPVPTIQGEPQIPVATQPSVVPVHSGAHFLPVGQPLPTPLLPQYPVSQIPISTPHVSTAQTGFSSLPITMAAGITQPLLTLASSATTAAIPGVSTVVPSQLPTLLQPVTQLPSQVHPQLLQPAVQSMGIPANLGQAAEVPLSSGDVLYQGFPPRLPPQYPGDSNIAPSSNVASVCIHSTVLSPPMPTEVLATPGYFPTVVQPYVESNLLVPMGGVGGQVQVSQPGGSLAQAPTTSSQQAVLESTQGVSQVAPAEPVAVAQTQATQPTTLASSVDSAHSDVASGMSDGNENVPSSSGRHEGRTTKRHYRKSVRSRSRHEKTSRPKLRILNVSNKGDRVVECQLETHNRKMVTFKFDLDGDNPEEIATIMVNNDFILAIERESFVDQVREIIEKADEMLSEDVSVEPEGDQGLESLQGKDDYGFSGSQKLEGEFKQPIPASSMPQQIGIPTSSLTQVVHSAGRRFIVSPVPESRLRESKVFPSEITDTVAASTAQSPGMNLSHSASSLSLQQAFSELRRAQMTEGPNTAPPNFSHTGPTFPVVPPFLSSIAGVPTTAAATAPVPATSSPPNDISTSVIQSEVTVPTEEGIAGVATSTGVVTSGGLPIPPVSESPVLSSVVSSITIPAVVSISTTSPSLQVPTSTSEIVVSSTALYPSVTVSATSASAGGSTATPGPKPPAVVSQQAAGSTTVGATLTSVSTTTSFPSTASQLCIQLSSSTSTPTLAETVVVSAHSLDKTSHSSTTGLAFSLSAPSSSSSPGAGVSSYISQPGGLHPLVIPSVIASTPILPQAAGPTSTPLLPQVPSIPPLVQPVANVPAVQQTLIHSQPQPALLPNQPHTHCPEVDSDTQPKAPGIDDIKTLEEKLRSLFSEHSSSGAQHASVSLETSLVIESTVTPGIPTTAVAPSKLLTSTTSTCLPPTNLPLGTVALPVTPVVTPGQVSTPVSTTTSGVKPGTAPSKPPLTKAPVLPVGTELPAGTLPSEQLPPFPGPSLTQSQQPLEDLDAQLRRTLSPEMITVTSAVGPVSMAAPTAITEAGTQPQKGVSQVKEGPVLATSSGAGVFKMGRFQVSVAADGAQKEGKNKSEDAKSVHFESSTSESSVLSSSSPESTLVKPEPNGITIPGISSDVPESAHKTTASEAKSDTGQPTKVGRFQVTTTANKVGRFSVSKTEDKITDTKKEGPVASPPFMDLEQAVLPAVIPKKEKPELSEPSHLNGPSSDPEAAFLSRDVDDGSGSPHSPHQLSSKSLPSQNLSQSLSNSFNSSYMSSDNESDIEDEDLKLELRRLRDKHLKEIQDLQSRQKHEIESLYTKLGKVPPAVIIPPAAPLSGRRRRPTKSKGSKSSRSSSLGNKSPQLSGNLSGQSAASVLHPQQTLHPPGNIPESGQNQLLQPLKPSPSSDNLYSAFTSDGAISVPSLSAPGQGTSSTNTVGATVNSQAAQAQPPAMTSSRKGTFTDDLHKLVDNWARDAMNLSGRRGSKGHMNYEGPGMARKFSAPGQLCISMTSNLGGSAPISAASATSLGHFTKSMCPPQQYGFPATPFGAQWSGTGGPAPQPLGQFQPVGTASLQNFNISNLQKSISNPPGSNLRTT
Sequence of various enzymes (Homo sapiens, UniProt O94921) (O94921 whole entry): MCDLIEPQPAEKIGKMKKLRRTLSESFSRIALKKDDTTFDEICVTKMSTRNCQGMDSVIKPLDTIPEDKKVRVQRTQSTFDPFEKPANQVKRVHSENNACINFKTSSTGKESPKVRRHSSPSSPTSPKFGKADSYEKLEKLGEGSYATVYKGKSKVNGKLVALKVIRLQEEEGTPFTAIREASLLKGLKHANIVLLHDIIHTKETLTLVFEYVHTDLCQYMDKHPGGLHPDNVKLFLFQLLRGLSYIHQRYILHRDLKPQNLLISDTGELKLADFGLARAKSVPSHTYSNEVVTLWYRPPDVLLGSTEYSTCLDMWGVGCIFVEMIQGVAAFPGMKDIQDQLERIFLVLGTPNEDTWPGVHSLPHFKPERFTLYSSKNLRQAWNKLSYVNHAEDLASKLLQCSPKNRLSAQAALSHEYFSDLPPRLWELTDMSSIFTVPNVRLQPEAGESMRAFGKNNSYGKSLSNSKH
Sequence of various enzymes (Homo sapiens, UniProt P49336) (P49336 whole entry): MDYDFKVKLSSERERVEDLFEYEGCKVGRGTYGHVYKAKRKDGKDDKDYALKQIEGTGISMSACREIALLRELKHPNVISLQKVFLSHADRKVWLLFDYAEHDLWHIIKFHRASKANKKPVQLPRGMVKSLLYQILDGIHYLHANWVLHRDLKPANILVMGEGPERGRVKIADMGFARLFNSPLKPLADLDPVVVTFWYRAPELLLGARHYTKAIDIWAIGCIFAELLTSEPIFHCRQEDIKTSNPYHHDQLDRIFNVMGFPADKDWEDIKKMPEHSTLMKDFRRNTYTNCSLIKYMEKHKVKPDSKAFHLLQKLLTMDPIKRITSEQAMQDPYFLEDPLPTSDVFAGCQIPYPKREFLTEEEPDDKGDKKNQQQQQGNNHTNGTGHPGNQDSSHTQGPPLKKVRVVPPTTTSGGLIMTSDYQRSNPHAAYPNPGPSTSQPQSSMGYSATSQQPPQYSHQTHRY

As to `CN1Cc2nn(C)cc2-c2cnc3[nH]cc(c3c2)-c2cnn(c2)CCCC1=O` [Compound 41, (Z)-31,5-dimethyl-11H,21H,31H-5-aza-2(3,5)-pyrrolo[2,3-b]pyridina-1(4,1),3(4,3)-dipyrazolacyclononaphan-6-one], the Ambit profiling at various enzymes [1] was found to be 11; at various enzymes [2], 69; on various enzymes [3], 100; at various enzymes [4] it was 65; on various enzymes [5] it was 4.7; on various enzymes [6], 95. Moreover, the Ambit profiling at various enzymes [7] is reported as 90; at various enzymes [8] (RSK4(Kin.Dom.1-N-terminal)), 5.6; at various enzymes [8] (RSK4(Kin.Dom.2-C-terminal)), 63.

Regarding `CN1Cc2nn(C)c(C#N)c2-c2cnc3[nH]cc(c3c2)-c2cn(nc2C(F)(F)F)CCCC1=O` [Compound 48, (Z)-31,5-dimethyl-6-oxo-13-(trifluoromethyl)-11H,21H,31H-5-aza-2(3,5)-pyrrolo[2,3-b]pyridina-1(4,1),3(4,3)-dipyrazolacyclononaphane-35-carbonitrile], the Ambit profiling was 100 on various enzymes [1]; 91 at various enzymes [2]; 100 at various enzymes [3]; 100 at various enzymes [4]; 100 at various enzymes [5]; 100 at various enzymes [6]. Moreover, the Ambit profiling on various enzymes [7] amounted to 100; at various enzymes [8] (RSK4(Kin.Dom.1-N-terminal)), 7.5; on various enzymes [8] (RSK4(Kin.Dom.2-C-terminal)), 69.
